Results taken from patent US9216181B2 (Southwest Research Institute, priority 2011, dated 2015).
Where a name gives a salt, the structure may show the parent alone. Read-outs that look alike come from different tables or passages of the source.

Experiments:
BMP-2 [1] = experiment: Real time PCR of BMP-2 gene expression in human MSC (Cells-to-Ct); format: cell-based; details: BMP-2 mRNA, hMSC, 5-10 μM, 24 hours, vs untreated
Protocol: Early passage human mesenchymal stem cells (MSC) were thawed from one frozen cryo-vial and seeded into two T-75 tissue culture flasks and incubated at 37° C. for 48 hours in Alpha MEM with 10% FBS. After three days and one re-feeding, the cells were trypsinized and re-suspended in pre-warmed media at 5×10^4 cells/mL to provide 5,000 cells per well in a 96 well plate and incubated overnight at 37° C. in 5% CO2.
Each well was washed in cold PBS, lysed at room temperature for five minutes, and stop reagent added to each well to stop the lysis reaction. The final lysate was kept cold at 4° C. and used immediately as the RNA template for the reverse transcription cDNA synthesis following the TAQMAN GENE EXPRESSION CELLS TO CT KIT instructions.
The cDNA synthesis was prepared on a separate sterile 96-well PCR plate and performed on the Step One Plus Real Time PCR System instrument (Applied Biosystems) with the programming set at 37° C. for 60 minutes and an inactivation hold of 95° C. for five minutes. The final cDNA reaction was kept cold and used as the template for the TAQMAN GENE Real-Time PCR step following the recommended instructions for TAQMAN GENE EXPRESSION CELLS TO CT KIT assay. […] Template cDNA's were added separately to respective individual wells in replicate samples.
The PCR was performed on the STEPONEPLUS Real-Time System instrument (Applied Biosystems). The amplification program consisted of 1 cycle of 95° C. with 10 minute hold (hot start) and followed by 50 cycles of 95° C. with 15-second annealing hold and 1-minute 60° C. specified acquisition hold.

BMP2 = experiment: Quantitative PCR (TaqMan, ΔΔCt) of BMP2 in human mesenchymal stem cells; format: cell-based; details: for fold induction at 10 µM: Homo sapiens, Mesenchymal stem cells, read-out: q-PCR Fold increase
Protocol: (§1) Human mesenchymal stem cells (LONZA, Catalog PT2501) were maintained in Mesenchymal stem cells basal media (MSCBM CAT#PT-3238). Early passage cells were plated in triplicate at 2×10^4 cells/cm^2 using six well tissue culture plates and grown in humidified 5% CO2 at 37° C. for 24 hours. Spent media was replaced by assay media of drugs to be tested in same media as above at 10 μM final concentration. Untreated cells were used as the control group. Total RNA were prepared using either TRI Reagent (Ambion, Cat. 9738), for subsequent TaqMan gene expression qPCR of BMP2. RNA concentration and integrity was assessed by absorbance 260/280 and electrophoresis in 1% Agarose with formaldehyde loading dye. For TaqMan gene expression, cDNA was synthesized from 2 μg of total RNA using the High Capacity cDNA Reverse Transcription Kit (Applied Biosystems, Cat. 4368814). The resulting cDNA were diluted 1:100 for TaqMan and amplified by real-time quantitative PCR. Gene-specific fluorescent labeled TaqMan primers for FAM-BMP2 (Applied Biosystems, Hs00154192.m1) and TaqMan reference VIC-18S ribosomal RNA (Applied Biosystems, 4310893E) were used to target gene of interest. A cocktail of universal master mix (Applied Biosystems, 4369016) were prepared individually for both set of primers which contained Taq Polymerase, dNTPs, and buffer. Template cDNA's were added separately to respective individual wells in triplicate samples. The PCR were performed on StepOne Plus Real Time System instrument (Applied Biosystems). The amplification program consisted of 1 cycle of 95° C. with 10 minute hold (hot start) followed by 50 cycles of 95° C. with 15 second annealing hold and 1 minute 60° C. specified acquisition hold. The Ct value of endogenous reference gene (i.e. 18 s) was used to control for input RNA and then used to normalize target gene (i.e. BMP2) tested from the same cDNA sample to calculate the Δ Ct, and then calibrated to an internal reference sample. Change in gene expression was determined by the expression ΔΔCt relative method.
18 compounds were confirmed positive by the more stringent qPCR techniques. […] Included in the tables is the target or common medical use for each compounds.

BMP-2 [2] = experiment: BMP-2 fold change of JHU library compounds, confirmed by qPCR; format: cell-based, human; details: JHU library compounds; non-treated = 1.00
Text: To further verify the technique, a 2T3 mouse pre-osteoblast cell line derived from calvaria courtesy of Dr. Steve Harris, UTHSCSA, was utilized to visually screen the compounds of the BIOMOL library and JHU libraries, purchased from John Hopkins University including 2387 compounds (solution in wells). Specifically, Murine 2T3 were thawed from one frozen cryovial and re-seeded into two T-75 tissue culture flasks grown in Alpha MEM with 10% FBS, Glutamine, and Pen/Strip antibiotics. Cells were incubated in a humidified 37° C. under 5% CO2 for 48 hours or when cells reached 80% confluence. After reaching confluency, the 2T3 were trypsinized and resuspended in pre-warm growth media to a cell density of 5×10^4 cells/mL. Approximately 100 uL of cell suspension was seeded to a 96 well plate to give a final 5,000 cells per well. Plate was incubated overnight at 37° C. and spent media was aspirated and replace with 100 uL of growth media with 5-10 uM of presumptive drug compounds. A set of controls were untreated and treated with 10 uM of Lovastatin to be used as a visual reference morphological screening.
as §1, with “Total RNA were prepared using either TRI Reagent (Ambion, Cat. 9738), for subsequent TaqMan gene expression qPCR of BMP2.” left out, “Gene-specific fluorescent labeled TaqMan primers for FAM-BMP2 (Applied Biosystems, Hs00154192.m1) and TaqMan reference VIC-18S ribosomal RNA (Applied Biosystems, 4310893E) were used to target gene of interest.” left out, “The Ct value of endogenous reference gene (i.e. 18 s) was used to control for input RNA and then used to normalize target gene (i.e. BMP2) tested from the same cDNA sample to calculate the Δ Ct, and then calibrated to an internal reference sample.” left out
Included in the tables is the target or common medical use for each compounds.

[3] = BMP2 mRNA, hMSC, 10 μM, vs untreated, 18S reference, BIOMOL library (Table 2)
[4] = positive control compounds (Table 1)
[5] = BMP2 mRNA, hMSC, 10 μM, vs untreated, 18S reference, positive control compounds (Table 1)

| Structure (SMILES) | RT PCR Fold increase (BMP-2 [1]; BIOMOL library (Table 2)) [fold] | fold induction at 10 µM (BMP2; [3]) | RT PCR Fold increase (BMP-2 [1]; [4]) [fold] | further results |
| --- | --- | --- | --- | --- |
| CC[C@@]1(O)C(=O)OCc2c1cc1n(c2=O)Cc2cc3cc(O)ccc3nc2-1 [10-hydroxy-camptothecin] | 30.0 |  |  | q-PCR Fold increase (BMP2; [3]): 3.9 fold |
| CN1CCc2cccc3c2[C@H]1Cc1ccc(O)c(O)c1-3 [Apomorphine r (−)] | 4.6 | 7.3 |  |  |
| CC(=O)OC[C@H]1O[C@@H]([S-])[C@H](OC(C)=O)[C@@H](OC(C)=O)[C@@H]1OC(C)=O.CCP(CC)CC.[Au+] [Auranofin] | 309.8 |  |  | q-PCR Fold increase (BMP2; [3]): 17.6 fold |
| CC(C)C[C@H](NC(=O)[C@H](Cc1ccccc1)NC(=O)c1cnccn1)B(O)O [Bortezomib] |  |  | 15.4 | fold induction at 10 µM (BMP2; [5]): 2.4 |
| C=C1CC[C@H](O)C/C1=C/C=C1\CCC[C@]2(C)[C@@H]([C@H](C)CCCC(C)(C)O)CC[C@@H]12 [Calcifediol] | 6.0 | 3.4 |  |  |
| CC[C@@]1(O)C(=O)OCc2c1cc1n(c2=O)Cc2cc3ccccc3nc2-1 [Camptothecin] | 29.0 | 4 |  |  |
| COCc1c(C(C)C)nc(C(C)C)c(/C=C/[C@@H](O)C[C@@H](O)CC(=O)O)c1-c1ccc(F)cc1 [Cerivastatin] |  |  | 5.3 | fold induction at 10 µM (BMP2; [5]): 11.9 |
| N=C(N)N1CCc2ccccc2C1 [Debrisoquin sulfate] | 8.2 | 6.2 |  |  |
| CC(=O)O[C@@]12CO[C@@H]1C[C@H](O)[C@@]1(C)C(=O)[C@H](O)C3=C(C)[C@@H](OC(=O)[C@H](O)[C@@H](NC(=O)OC(C)(C)C)c4ccccc4)C[C@@](O)([C@@H](OC(=O)c4ccccc4)[C@H]21)C3(C)C [Docetaxil] |  |  | 11.0 | q-PCR Fold increase (BMP2; [5]): 2.7 fold |
| COC(=O)Nc1nc2ccc(Sc3ccccc3)cc2[nH]1 [Fenbendazole] | 6.6 | 2 |  |  |
| COC(=O)Nc1nc2cc(C(=O)c3ccc(F)cc3)ccc2[nH]1 [Flubendazole] | 5.6 | 1.7 |  | Fold change (BMP-2) (BMP-2 [2]): 10.00 fold |
| CC(C)C(=O)Nc1ccc([N+](=O)[O-])c(C(F)(F)F)c1 [Flutamide] | 9.7 | 1.6 |  |  |
| CC(C)n1c(/C=C/C(O)CC(O)CC(=O)[O-])c(-c2ccc(F)cc2)c2ccccc21.[Na+] (centres unmarked) [Fluvastatin Na] |  |  | 3.2 | q-PCR Fold increase (BMP2; [5]): 7.8 fold |
| COC(=O)c1ccc(O)c2nc3c(C=O)c(O)cc(O)c3nc12 [Lomofungin] | 32.6 | 14.2 |  | Fold change (BMP-2) (BMP-2 [2]): 26.00 fold |
| CNCCCC12CCC(c3ccccc31)c1ccccc12 [Maprotiline] | 3.6 | 2.4 |  |  |
| CC[C@H](C)C(=O)O[C@H]1CCC=C2C=C[C@H](C)[C@H](CC[C@@H]3C[C@@H](O)CC(=O)O3)[C@H]21 [Mevastatin] |  |  | 3.1 | fold induction at 10 µM (BMP2; [5]): 0.9 |
| CCCCN1C[C@H](O)[C@@H](O)[C@H](O)[C@H]1CO [Miglustat] | 4.9 | 6.6 |  |  |
| CCCOc1ccc2nc(NC(=O)OC)[nH]c2c1 [Oxibendazole] | 4.5 | 1.4 |  | Fold change (BMP-2) (BMP-2 [2]): 18.00 fold |
| COc1cc2nc(N3CCN(C(=O)c4ccco4)CC3)nc(N)c2cc1OC [Prazosin] | 6.8 | 4 |  |  |
| COc1ccc(C[C@H](N)C(=O)N[C@H]2[C@@H](O)[C@H](n3cnc4c(N(C)C)ncnc43)O[C@@H]2CO)cc1 [Puromycin] | 122.3 | 54.6 |  |  |
| CC(C)=CC[C@@H](O)C1=CC(=O)c2c(O)ccc(O)c2C1=O [Shikonin] |  |  | 23.5 | fold induction at 10 µM (BMP2): 1.5 |
| CCC(C)(C)C(=O)O[C@H]1C[C@@H](C)C=C2C=C[C@H](C)[C@H](CC[C@@H]3C[C@@H](O)CC(=O)O3)[C@H]21 [Simvastatin] |  |  | 4.2 | fold induction at 10 µM (BMP2): 2.3 |
| CC(=O)O[C@H]1C(=O)[C@@]2(C)[C@H]([C@H](OC(=O)c3ccccc3)[C@]3(O)C[C@H](OC(=O)[C@H](O)[C@@H](NC(=O)c4ccccc4)c4ccccc4)C(C)=C1C3(C)C)[C@]1(OC(C)=O)CO[C@@H]1C[C@@H]2O [Taxol] |  |  | 3.7 | fold induction at 10 µM (BMP2; [5]): 4 |
| CC(C)(C)c1ccc(C(O)CCCN2CCC(C(O)(c3ccccc3)c3ccccc3)CC2)cc1 (centres unmarked) [Terfenadine] | 13.9 | 10.4 |  |  |
| CC[C@]1(O)C[C@@H]2CN(CCc3c([nH]c4ccccc34)[C@@](C(=O)OC)(c3cc4c(cc3OC)N(C)[C@H]3[C@@](O)(C(=O)OC)[C@H](OC(C)=O)[C@]5(CC)C=CCN6CC[C@]43[C@@H]65)C2)C1 [Vinblastine sulfate] |  |  | 9.5 | fold induction at 10 µM (BMP2; [5]): 1.7; Fold change (BMP-2) (BMP-2 [2]): 64.00 fold |
| CC[C@]1(O)C[C@@H]2CN(CCc3c([nH]c4ccccc34)[C@@](C(=O)OC)(c3cc4c(cc3OC)N(C)[C@H]3[C@@](O)(C(N)=O)[C@H](O)[C@]5(CC)C=CCN6CC[C@]43[C@@H]65)C2)C1 [Vindesine] |  |  | 12.4 | fold induction at 10 µM (BMP2; [5]): 1.8 |
